US11685741B2, “Fluorescent probes” (University of Massachusetts, priority 2017, dated 2023)

Test system: Bovine aortic endothelial cells (BAEC)
Test: Confocal imaging of Fe2+ in BAEC cells
Type: cell-based
Settings: for fluorescence of cells with sensor only / fluorescence of cells treated with Fe^2+ then Bpy: 10 μM sensor; for fluorescence of cells treated with Fe^2+ then Bpy: 100 μM Fe^2+ overnight, versus Fe^2+ supplement; for fluorescence of cells treated with Fe^2+ then Bpy / fluorescence of Bpy-treated cells: 1 mM Bpy; for fluorescence of Fe^2+-treated cells versus unsupplemented: 100 μM ferrous ammonium sulfate overnight, then 10 μM sensor 30 min; for fluorescence of Bpy-treated cells: versus control cells
Procedure: Bovine aortic endothelial cells BAEC cells, at an approximately density of 1.3 million/ml in complete EBM medium, were incubated with 100 μM ferrous ammonium sulfate (FAS, Fe (NH4)2(SO4)2 from a 10 mM stock solution) for overnight at 37° C. in a humid atmosphere of 5% CO2 and then the cells were washed with fresh EBM medium to remove excess Fe^2+. Then cells were incubated with Rh101D (10 μM, from 500 μM stock solution in DMF) at 37° C. for 30 min and then cells were washed with EBM media and then imaged. In addition, some cells were treated firstly with 100 μM Fe^2+ overnight and then the cells were washed with fresh EBM medium. For chelation experiments, Fe^2+-loaded cells or untreated cells were incubated with 1 mM 2,2′-bipyridyl (Bpy) at 37° C. for 30 min, then sensor was added followed by washing with the media, and then imaging was done. Controls were imaged without incubation with Fe^2+ or 2,2′-bipyridyl. HCT-116, a human colon adenocarcinoma cell line were used for concentration determination of Fe^2+ with the help of the ratiometric sensor Rh101D. HCT-116 were maintained in McCoy's 5A medium supplemented with 10% fetal bouvine serum and 5% antibiotic antimycotic in a 5% CO2 atmosphere at 37° C. Cultures were divided 1:2 every 48 h to an approximate cell density of 1.21 million cells/ml and used for experiments after 24 h. All experiments were performed with cells in the logarithmic growth phase.
A Zeiss LSM 710 laser-scanning confocal microscope system was used for cell imaging experiments in collaboration with a person in the lab. 40× oil-immersion objective lens were used to perform all the experiments. For imaging with the Rh101D sensor, excitation wavelength of the laser was 543 nm and emissions were collected over the range 545-625 nm. For images with MitoTracker Green FM, LysoTracker Deep Red, excitation wavelengths recommended by the manufacturer were 488 nm for MitoTracker, 633 nm for LysoTracker. Emissions were integrated at 492-535 nm (MitoTracker), 650-800 nm (LysoTracker), respectively.
The ability of Rh101D to detect Fe^2+ in live bovine aortic endothelial cells (BAEC) was investigated by confocal microscopy. […] For Fe^2+ repleting conditions, live BAEC cells were incubated with 100 μM of ferrous ammonium sulfate (Fe (NH4)2(SO4)2) at 37° C. for overnight followed by washing with EBM medium to remove excess Fe^2+ and then 10 μM of Rh101D was added to the culture media and was incubated at 37° C. for 30 min. […] For Fe^2+-depleting conditions, 2,2-bipyridyl (Bpy) which is known to be a selective Fe^2+-chelator was used to chelate Fe^2+[33]. […] This fluorescent intensity is almost the same as that of cells without Fe^2+ or Bpy treatment.
To explore this, the distribution of exchangeable Fe^2+ pools in live BAEC cells were further investigated using Rh101D, together with colocalization experiments using other dyes—MitoTracker Green FM (a green fluorescent dye which localizes to mitochondria in live cells regardless of mitochondrial membrane potential) and LysoTracker Deep Red (a fluorescent dye that stains acidic compartments such as endosomes and lysosomes in live cells). BAEC cells (without Fe^2+ treatment) were treated with Rh101D, MitoTracker Green FM, and […].
Bovine aortic endothelial cells (BAEC) were grown at 37° C. in a humid atmosphere of 5% CO2 atmosphere in Endothelial Basal Medium (EBM, Lonza) supplemented with 5% fetal bovine serum (FBS, ATCC). Cultures were divided into 1:2 every 48 h to an approximate cell density of 1.3 million cells/ml and used for experiments after 24 h.
A Zeiss LSM 710 laser-scanning confocal microscope system was used for cell imaging experiments in collaboration with a person in the lab. 40× oil-immersion objective lens were used to perform all the experiments. For imaging with the NIRh-Fret sensor, excitation wavelength of the laser was 633 nm and emissions were collected over the range 650-850 nm. […]

Row | Structure (SMILES) | fluorescence of cells with sensor only | fluorescence of cells treated with Fe^2+ then Bpy | fluorescence of Fe^2+-treated cells versus unsupplemented | fluorescence of Bpy-treated cells
1 | CCN(CC)c1ccc2c(c1)OC1=C(CCC/C1=C\C=C1\N(C)c3ccccc3C1(C)C)C21c2ccccc2C(=O)N1/N=C\C=C\c1ccc(N(C)C)cc1 (centres unmarked) [NIRh-Fret, (E)-6′-(diethylamino)-2-(((1Z,2E)-3-(4-(dimethylamino)phenyl)allylidene)amino)-4′-(2-((E)-1,3,3-trimethylindolin-2-ylidene)ethylidene)-1′,2′,3′,4′-tetrahydrospiro[isoindoline-1,9′-xanthen]-3-one] | weak fluorescence | marked decrease in fluorescent intensity | significant increase in fluorescent signals | decrease in fluorescence intensity
2 | CN(C)c1ccc(/C=C/C=N/N2C(=O)c3ccccc3C23c2cc4c5c(c2Oc2c3cc3c6c2CCCN6CCC3)CCCN5CCC4)cc1 [Rh101D] | weak fluorescence | marked decrease in fluorescent intensity | significant increase in fluorescent signals | decrease in fluorescence signal
